Read-outs that look alike come from different tables or passages of the source.
How the values were obtained:
[1] = Solubility of the purified product in solvents; type: physicochemical
Procedure: The broth is harvested and placed at 4° C. overnight. Remove the precipitate by centrifugation at 4000 rpm, 4° C., for 30 min. The supernatant is subject to macroporous resin, which is selected from: XAD-1600, SP850, or JD-1, by either static or dynamic mode. The resin is then eluted with double volume of purified water, 10%, 30%, 50%, 75%, and 100% of ethanol. Collect the fraction of the 50% elute and concentrate it under reduced pressure at 40° C. Dilute the concentrate by 10 fold with 30% acetonitrile and centrifuge at 12000 rpm for 10 min. Load 15-25 ml of the supernatant to a column for preparative chromatography (Biotage Si 25+M 1603-2, USA) at room temperature. Elute the column with 30% acetonitrile at flow rate of 3-5 ml/min, and collect the fraction of 200-400 ml. The collected elute is then concentrate under reduced pressure at 40° C., and the concentrate is subject to preparative HPLC by DIONEXP680 system or Agilent 1100 DAD system. The fraction containing target compound is concentrated and dried under reduced pressure at 40° C., and a purified product is obtained. […]

[2] = molecular target: T1, aminopeptidase N (L5006-25UN, Sigma) (Sus scrofa, UniProt P15145)
T1 sequence (P15145 1-963): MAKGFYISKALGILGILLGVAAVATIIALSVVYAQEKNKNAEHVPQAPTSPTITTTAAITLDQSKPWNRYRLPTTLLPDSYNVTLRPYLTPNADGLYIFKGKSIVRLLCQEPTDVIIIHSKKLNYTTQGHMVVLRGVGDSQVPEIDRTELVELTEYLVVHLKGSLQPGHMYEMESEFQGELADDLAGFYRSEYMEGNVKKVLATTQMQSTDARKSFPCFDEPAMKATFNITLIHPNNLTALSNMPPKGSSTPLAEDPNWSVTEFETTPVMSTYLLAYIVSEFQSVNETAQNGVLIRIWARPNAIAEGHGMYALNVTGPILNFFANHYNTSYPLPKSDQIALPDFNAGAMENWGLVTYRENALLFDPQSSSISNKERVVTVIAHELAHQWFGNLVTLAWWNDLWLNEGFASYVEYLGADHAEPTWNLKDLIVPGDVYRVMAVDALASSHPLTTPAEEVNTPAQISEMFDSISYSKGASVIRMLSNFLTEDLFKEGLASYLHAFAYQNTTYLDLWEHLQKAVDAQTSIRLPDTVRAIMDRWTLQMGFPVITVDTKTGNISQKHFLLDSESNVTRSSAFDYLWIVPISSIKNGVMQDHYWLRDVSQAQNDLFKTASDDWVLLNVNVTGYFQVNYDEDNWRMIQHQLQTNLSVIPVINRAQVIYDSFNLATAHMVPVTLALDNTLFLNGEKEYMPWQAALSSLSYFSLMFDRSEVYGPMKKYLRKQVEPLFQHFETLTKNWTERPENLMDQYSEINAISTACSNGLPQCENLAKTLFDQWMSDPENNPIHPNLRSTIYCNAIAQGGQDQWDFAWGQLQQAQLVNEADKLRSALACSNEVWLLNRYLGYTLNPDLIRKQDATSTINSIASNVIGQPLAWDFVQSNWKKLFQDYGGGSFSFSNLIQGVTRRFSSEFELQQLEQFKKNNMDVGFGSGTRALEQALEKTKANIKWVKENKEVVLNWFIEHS
Procedure: Biotechnol., 1995, 5(1):36-40” is followed to analyze the bioactivity of 3-amino-2-hydroxy-4-phenylbutanoyl-valyl-isoleucine, taking bestatin, a typical APN inhibitor used in leukemia treatment, as positive control.
The procedure for the assay is as follows: apply 100 μl (1 mg/ml in a 0.1M Tris-HCl, pH 7.0) of substrate (L-leucine-p-nitroanilide) to a 96-well plate, mix with 20 µl (0.1M Tris-HCl, pH 7.0) of the compound to be assayed of different concentration (0.86, 1.71, 2.57, 4.29, 8.57 μg/ml). Incubate at 37° C. for 3 min, followed by addition of 20 μl (2 mU, 0.1M Tris-HCl, pH 7.0) aminopeptidase N (L5006-25UN, Sigma), incubate at 37° C. for 30 min. Read the absorbance at 405 nm.
The inhibition rate is presented as:
Inhibition rate=(A−B)/A*100%
wherein: • A is the absorbance tested without inhibitor in the system. • B is the absorbance detected in the system containing different concentration of the compound. Use 0.1M Tris-HCl (pH 7.0) to normalize the buffer.

[3] = read-out: Inhibition Rate against APN (IR)

| Structure (SMILES) | solubility ([1]; in chloroform) | solubility ([1]; in methanol, ethanol, water and acetonitrile) | Inhibition Rate against APN (IR) ([2]; concentration 0.86 μg/ml) [%] | Inhibition Rate against APN (IR) ([2]; concentration 1.71 μg/ml) [%] | Inhibition Rate against APN (IR) ([2]; concentration 2.57 μg/ml) [%] | Inhibition Rate against APN (IR) ([2]; concentration 4.29 μg/ml) [%] | Inhibition Rate against APN (IR) ([2]; concentration 8.57 μg/ml) [%] | inhibition at 0.86 µg/mL [2, 3] [%] | inhibition at 1.71 µg/mL [2, 3] [%] | inhibition at 2.57 µg/mL [2, 3] [%] | inhibition at 4.29 µg/mL [2, 3] [%] | inhibition at 8.57 µg/mL [2, 3] [%] |
| --- | --- | --- | --- | --- | --- | --- | --- | --- | --- | --- | --- | --- |
| CC[C@H](C)[C@H](NC(=O)[C@@H](NC(=O)C(O)C(N)Cc1ccccc1)C(C)C)C(=O)O (stereo partly drawn) [the compound] | insoluble | soluble | 42.02 | 51.40 | 65.14 | 70.79 | 77.91 |  |  |  |  |  |
| CC(C)C[C@H](NC(=O)[C@@H](O)[C@H](N)Cc1ccccc1)C(=O)O [positive control, bestatin, reference compound] |  |  |  |  |  |  |  | 41.6 | 44.4 | 47.1 | 52.6 | 66.5 |
